Assay [1] deals with T1, native GSMT (glycine sarcosine N-methyltransferase) (Methanohalophilus portucalensis, UniProt F6KV61).
T1 construct: monomer and dimer fractions pooled
T1 sequence (F6KV61 1-263): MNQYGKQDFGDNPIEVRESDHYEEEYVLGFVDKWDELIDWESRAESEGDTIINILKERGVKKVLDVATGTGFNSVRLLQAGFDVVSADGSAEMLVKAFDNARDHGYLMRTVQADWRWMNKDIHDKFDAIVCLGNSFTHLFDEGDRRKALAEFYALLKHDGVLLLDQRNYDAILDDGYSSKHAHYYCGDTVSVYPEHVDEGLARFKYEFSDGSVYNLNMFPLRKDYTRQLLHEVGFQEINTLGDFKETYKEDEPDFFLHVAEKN
Nature of the assay: radiometric [methyl-3H]-SAM methyl transfer, charcoal separation. Format: biochemical. Particulars: read-out: I50.

The target in assay [2] is T1, native GSMT (glycine sarcosine N-methyltransferase). The description is as above. The class given is biochemical.

On to `Nc1ncnc2c1ncn2[C@@H]1O[C@H](CSCC[C@H](N)C(=O)O)[C@@H](O)[C@H]1O` [SAH, S-adenosylhomocysteine], for which the IC50 in assay [1] amounted to 50 µM.
Usually remaining activity stands for what remains of the control signal, in per cent. High values mean a small loss of activity, low ones a large loss of activity. For `C[N+](C)(C)CC(=O)[O-]` [betaine], the remaining activity at 1 M in assay [2] amounted to 43%.

The values above are taken from paper PMC5201303, “Comparison of Enzymatic Traits between Native and Recombinant Glycine Sarcosine N-Methyltransferase from Methanohalophilus portucalensis FDF1^T” (PLoS ONE, 2016).
